In this experiment the target is full-length human ATR protein (Homo sapiens (Human), UniProt Q13535). Put plainly: Binding assay ATR (TR-FRET tracer displacement). Conditions: TR-FRET. The text has this: To determine of binding activity of the test compounds, full-length human ATR protein was expressed and purified together with ATRIP as described above. Furthermore, a fluorescently labelled compound (either tracer A or B as described above) was used as a tracer molecule. Detection of the binding event of the tracer was achieved by time-resolved fluorescence energy transfer (TR-FRET). We used an anti-GST-Terbium antibody (CisBio) that binds to the GST-tag at the N-terminus of ATR-kinase. […] Displacement of the fluorescent tracer by a test compound leads to a reduction of the TR-FRET-signal.
For the assay 50 nl of a 100-fold concentrated solution of the test compound in DMSO was pipetted into a black low volume 384well microtiter plate (MTP, Greiner Bio-One, Frickenhausen, Germany). […] The ATR-working solution was incubated for 30 min at 22° C. prior to dispensing to pre-form the complex of antiGST-Tb+GST-ATR+ATRIP. Then, 3 μl of the ATR-working solution were added to the test compound and the mixture was incubated for 10 min at 22° C. to allow pre-binding of the test compounds to ATR/ATRIP. Then, 2 μl of a 100 nM solution of either tracer A or B in assay buffer were added to the ATR-working solution. The resulting mixture was incubated for 30 min at 22° C. […] The dilution series were prepared separately before the assay on the level of the 100 fold concentrated solutions in DMSO by serial 1:3.4 dilutions in duplicate values for each concentration. IC50 values were calculated by a 4 parameter fit using standard software (GraphPad prism or equivalent).

Where [1] appears, read: tracer A, read-out: ATR binding (tracer A) IC50.
Where [2] appears, read: tracer B, read-out: ATR binding (tracer B) IC50.

pIC50: −log10 of the molar value. Where two headings read alike, the source gives them in different places.

Experimental findings from patent publication US9549932B2, “2-(morpholin-4-yl)-1,7-naphthyridines” (BAYER PHARMA AKTIENGESELLSCHAFT, priority 2014, dated 2017) are described below.

full-length human ATR protein, sequence (Q13535 other isoform, or with tags, fused parts or gaps): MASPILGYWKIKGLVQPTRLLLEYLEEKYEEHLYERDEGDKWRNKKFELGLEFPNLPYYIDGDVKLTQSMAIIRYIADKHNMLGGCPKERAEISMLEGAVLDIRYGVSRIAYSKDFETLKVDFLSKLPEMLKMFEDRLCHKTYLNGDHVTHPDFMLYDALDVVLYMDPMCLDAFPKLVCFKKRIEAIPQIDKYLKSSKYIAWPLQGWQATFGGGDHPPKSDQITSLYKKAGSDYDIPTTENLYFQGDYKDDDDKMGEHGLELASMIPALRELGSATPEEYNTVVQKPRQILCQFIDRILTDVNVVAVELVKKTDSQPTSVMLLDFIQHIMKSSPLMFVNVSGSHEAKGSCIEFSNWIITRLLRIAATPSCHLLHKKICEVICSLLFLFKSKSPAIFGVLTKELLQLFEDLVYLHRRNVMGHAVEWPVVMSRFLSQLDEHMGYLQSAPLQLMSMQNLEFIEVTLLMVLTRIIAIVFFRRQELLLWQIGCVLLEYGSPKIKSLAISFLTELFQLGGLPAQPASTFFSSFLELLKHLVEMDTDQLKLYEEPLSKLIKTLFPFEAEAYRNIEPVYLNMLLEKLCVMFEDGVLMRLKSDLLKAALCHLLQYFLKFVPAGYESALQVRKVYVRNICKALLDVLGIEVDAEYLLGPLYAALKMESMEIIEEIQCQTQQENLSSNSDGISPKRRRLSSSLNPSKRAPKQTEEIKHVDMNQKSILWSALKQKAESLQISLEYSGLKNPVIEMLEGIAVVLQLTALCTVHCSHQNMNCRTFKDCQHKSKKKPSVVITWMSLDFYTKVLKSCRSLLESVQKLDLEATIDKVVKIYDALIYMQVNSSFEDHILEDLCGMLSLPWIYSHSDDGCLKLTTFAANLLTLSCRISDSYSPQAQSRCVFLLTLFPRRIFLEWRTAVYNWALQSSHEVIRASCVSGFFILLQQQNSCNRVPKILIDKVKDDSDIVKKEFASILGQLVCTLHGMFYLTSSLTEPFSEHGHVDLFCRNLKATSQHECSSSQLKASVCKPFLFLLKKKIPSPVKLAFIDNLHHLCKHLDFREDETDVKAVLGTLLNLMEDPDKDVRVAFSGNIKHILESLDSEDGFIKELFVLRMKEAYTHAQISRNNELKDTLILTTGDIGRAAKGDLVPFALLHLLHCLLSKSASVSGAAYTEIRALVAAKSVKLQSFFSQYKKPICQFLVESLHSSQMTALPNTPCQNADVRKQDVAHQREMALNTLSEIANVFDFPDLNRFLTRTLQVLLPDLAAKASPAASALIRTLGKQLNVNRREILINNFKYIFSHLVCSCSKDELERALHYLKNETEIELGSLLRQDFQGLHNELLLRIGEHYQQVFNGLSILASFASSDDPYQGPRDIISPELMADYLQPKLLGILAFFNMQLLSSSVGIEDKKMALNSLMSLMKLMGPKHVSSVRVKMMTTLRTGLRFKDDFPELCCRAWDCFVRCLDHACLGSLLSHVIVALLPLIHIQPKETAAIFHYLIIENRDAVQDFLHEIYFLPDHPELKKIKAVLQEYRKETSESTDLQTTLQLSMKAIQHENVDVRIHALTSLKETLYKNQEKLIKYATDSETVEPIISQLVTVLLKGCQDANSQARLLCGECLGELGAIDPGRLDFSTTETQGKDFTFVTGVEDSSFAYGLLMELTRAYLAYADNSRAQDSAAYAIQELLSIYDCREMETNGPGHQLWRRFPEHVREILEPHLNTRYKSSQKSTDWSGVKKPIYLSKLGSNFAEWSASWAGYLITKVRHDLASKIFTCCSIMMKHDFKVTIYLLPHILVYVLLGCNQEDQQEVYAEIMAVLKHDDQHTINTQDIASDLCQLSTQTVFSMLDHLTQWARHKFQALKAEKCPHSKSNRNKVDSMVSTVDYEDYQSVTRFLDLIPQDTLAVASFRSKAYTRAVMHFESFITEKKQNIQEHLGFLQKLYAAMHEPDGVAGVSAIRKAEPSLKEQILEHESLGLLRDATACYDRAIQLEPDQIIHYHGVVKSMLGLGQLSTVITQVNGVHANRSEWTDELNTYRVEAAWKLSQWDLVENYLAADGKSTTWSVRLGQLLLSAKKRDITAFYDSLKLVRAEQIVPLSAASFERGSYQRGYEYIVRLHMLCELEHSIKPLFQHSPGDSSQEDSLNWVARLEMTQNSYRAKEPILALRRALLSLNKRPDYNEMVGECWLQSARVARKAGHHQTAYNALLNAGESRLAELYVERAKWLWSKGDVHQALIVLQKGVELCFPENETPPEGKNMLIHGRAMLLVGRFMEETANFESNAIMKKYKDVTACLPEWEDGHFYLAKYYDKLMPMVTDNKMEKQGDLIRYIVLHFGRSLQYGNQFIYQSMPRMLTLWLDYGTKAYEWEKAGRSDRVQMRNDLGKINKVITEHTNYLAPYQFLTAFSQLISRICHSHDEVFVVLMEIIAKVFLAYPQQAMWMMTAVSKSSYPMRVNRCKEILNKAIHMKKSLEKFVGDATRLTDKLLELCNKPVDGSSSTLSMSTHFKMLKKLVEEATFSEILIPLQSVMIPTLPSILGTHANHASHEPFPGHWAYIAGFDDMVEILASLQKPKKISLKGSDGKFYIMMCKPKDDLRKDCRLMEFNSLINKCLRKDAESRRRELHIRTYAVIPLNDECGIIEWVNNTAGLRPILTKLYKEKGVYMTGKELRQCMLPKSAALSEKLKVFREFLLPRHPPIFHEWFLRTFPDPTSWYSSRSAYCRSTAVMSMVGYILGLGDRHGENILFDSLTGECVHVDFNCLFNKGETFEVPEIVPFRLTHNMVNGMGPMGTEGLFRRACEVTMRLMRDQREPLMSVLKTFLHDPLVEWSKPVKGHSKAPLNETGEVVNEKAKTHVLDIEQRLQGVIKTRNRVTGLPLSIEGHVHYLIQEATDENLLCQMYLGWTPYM
full-length human ATR protein, sequence (Q8WXE1 other isoform, or with tags, fused parts or gaps partner): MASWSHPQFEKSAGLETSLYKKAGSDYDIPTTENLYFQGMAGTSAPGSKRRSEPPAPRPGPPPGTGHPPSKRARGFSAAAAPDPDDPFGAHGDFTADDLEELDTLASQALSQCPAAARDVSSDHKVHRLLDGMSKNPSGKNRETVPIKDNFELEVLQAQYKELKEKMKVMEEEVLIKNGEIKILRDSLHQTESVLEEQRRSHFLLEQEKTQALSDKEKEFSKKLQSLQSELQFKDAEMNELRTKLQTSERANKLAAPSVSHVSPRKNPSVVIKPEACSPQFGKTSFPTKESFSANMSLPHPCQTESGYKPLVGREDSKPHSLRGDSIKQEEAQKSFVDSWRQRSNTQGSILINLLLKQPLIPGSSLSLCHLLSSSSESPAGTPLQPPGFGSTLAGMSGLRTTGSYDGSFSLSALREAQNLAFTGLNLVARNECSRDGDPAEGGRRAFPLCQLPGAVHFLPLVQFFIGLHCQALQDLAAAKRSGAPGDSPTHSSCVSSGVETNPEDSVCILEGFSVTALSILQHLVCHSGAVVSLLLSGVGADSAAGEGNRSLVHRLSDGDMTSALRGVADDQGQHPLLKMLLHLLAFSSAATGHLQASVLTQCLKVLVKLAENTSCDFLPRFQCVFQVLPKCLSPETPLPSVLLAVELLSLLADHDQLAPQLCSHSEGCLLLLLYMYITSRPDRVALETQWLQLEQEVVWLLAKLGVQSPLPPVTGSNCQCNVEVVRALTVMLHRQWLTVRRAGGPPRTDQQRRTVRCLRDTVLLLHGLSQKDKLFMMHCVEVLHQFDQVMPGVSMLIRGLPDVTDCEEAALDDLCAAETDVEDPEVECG

Consider `c1ccc(Sc2cc(N3CCOCC3)nc3c(-c4ccn[nH]4)nccc23)cc1` [Example 207, 2-(morpholin-4-yl)-4-(phenylsulfanyl)-8-(1H-pyrazol-5-yl)-1,7-naphthyridine], for which the pIC50 under setting [1] was 6.27.
Regarding `c1cc(-c2nccc3c(N4CCCCCC4)cc(N4CCOCC4)nc23)[nH]n1` [Example 413, 4-(azepan-1-yl)-2-(morpholin-4-yl)-8-(1H-pyrazol-5-yl)-1,7-naphthyridine], the pIC50 under setting [1] is 6.55.
As to `Cc1nnc(-c2cc(N3CCOC[C@H]3C)nc3c(-c4ccn[nH]4)nccc23)o1` [Example 136, 2-[(3R)-3-methylmorpholin-4-yl]-4-(5-methyl-1,3,4-oxadiazol-2-yl)-8-(1H-pyrazol-5-yl)-1,7-naphthyridine], the negative logarithm of the IC50 (pIC50) under setting [1] was 7.45.
Turning to `Oc1ccc(-c2cc(N3CCOCC3)nc3c(-c4ccn[nH]4)nccc23)cn1` [Example 390, 5-[2-(morpholin-4-yl)-8-(1H-pyrazol-5-yl)-1,7-naphthyridin-4-yl]pyridin-2-ol], under setting [1], the pIC50 was 6.18.
As to `CC(C)(O)c1cc(N2CCOCC2)nc2c(-c3ccn[nH]3)nccc12` [Example 173, 2-[2-(morpholin-4-yl)-8-(1H-pyrazol-5-yl)-1,7-naphthyridin-4-yl]propan-2-ol], the pIC50 under setting [1] was 6.69.
As to `FC(F)(F)c1cccc(-c2cc(N3CCOCC3)nc3c(-c4ccn[nH]4)nccc23)c1` [Example 303, 2-(morpholin-4-yl)-8-(1H-pyrazol-5-yl)-4-[3-(trifluoromethyl)phenyl]-1,7-naphthyridine], the pIC50 under setting [1] was 7.06.
For `OC[C@H]1CCCN(c2cc(N3CCOCC3)nc3c(-c4ccn[nH]4)nccc23)C1` (stereo in doubt) [Example 437, {1-[2-(morpholin-4-yl)-8-(1H-pyrazol-5-yl)-1,7-naphthyridin-4-yl]piperidin-3-yl}methanol], the pIC50 under setting [1] is 6.93.
In the case of `CCn1nc(C)cc1-c1cc(N2CCOC[C@H]2C)nc2c(-c3ccn[nH]3)nccc12` [Example 113, 4-(1-ethyl-3-methyl-1H-pyrazol-5-yl)-2-[(3R)-3-methylmorpholin-4-yl]-8-(1H-pyrazol-5-yl)-1,7-naphthyridine], under setting [1], the pIC50 was 8.24.
The same measure, in the same setting: as for `C[C@@H]1COCCN1c1cc(N=S(C)(=O)c2ccccc2F)c2ccnc(-c3ccn[nH]3)c2n1` (stereo partly drawn) [Example 139, 4-{[(2-fluorophenyl)(methyl)oxido-λ^6-sulfanylidene]amino}-2-[(3R)-3-methylmorpholin-4-yl]-8-(1H-pyrazol-5-yl)-1,7-naphthyridine], the figure is 7.38; as for `C[C@@H]1COCCN1c1cc(N2CCN(C)C(=O)C2)c2ccnc(-c3ccn[nH]3)c2n1` [Example 157, 1-methyl-4-{2-[(3R)-3-methylmorpholin-4-yl]-8-(1H-pyrazol-5-yl)-1,7-naphthyridin-4-yl}piperazin-2-one], 7.04.
For the compound `COc1cccc(OC)c1-c1cc(N2CCOCC2)nc2c(-c3ccn[nH]3)nccc12` [Example 342, 4-(2,6-dimethoxyphenyl)-2-(morpholin-4-yl)-8-(1H-pyrazol-5-yl)-1,7-naphthyridine], the pIC50 under setting [1] is 5.56.
Consider `CC(=O)Nc1ccccc1-c1cc(N2CCOC[C@H]2C)nc2c(-c3ccn[nH]3)nccc12` [Example 166, N-(2-{2-[(3R)-3-methylmorpholin-4-yl]-8-(1H-pyrazol-5-yl)-1,7-naphthyridin-4-yl}phenyl)acetamide], for which, under setting [1], the pIC50 was 6.44.
As for `Cc1noc(C)c1-c1cc(N2CCOCC2)nc2c(-c3ccn[nH]3)nccc12` [Example 379, 4-(3,5-dimethyl-1,2-oxazol-4-yl)-2-(morpholin-4-yl)-8-(1H-pyrazol-5-yl)-1,7-naphthyridine], under setting [1], the pIC50 was 7.16.
In the case of `Cc1nc(S(C)(=N)=O)ccc1-c1cc(N2CCOC[C@H]2C)nc2c(-c3ccn[nH]3)nccc12` (stereo partly drawn) [Example 116, 4-[2-methyl-6-(S-methylsulfonimidoyl)pyridin-3-yl]-2-[(3R)-3-methylmorpholin-4-yl]-8-(1H-pyrazol-5-yl)-1,7-naphthyridine], under setting [1], the pIC50 is 8.02.
Turning to `Cc1cc(COc2cc(N3CCOCC3)nc3c(-c4ccn[nH]4)nccc23)on1` [Example 48, 4-[(3-methyl-1,2-oxazol-5-yl)methoxy]-2-(morpholin-4-yl)-8-(1H-pyrazol-5-yl)-1,7-naphthyridine], the pIC50 under setting [1] was 6.79.
On the same count and under the same terms, then `CC(C)Oc1ncccc1-c1cc(N2CCOC[C@H]2C)nc2c(-c3ccn[nH]3)nccc12` [Example 219, 2-[(3R)-3-methylmorpholin-4-yl]-4-[2-(propan-2-yloxy)pyridin-3-yl]-8-(1H-pyrazol-5-yl)-1,7-naphthyridine], with 6.88.
In the case of `Cc1cc(-c2cc(N3CCOCC3)nc3c(-c4ccn[nH]4)nccc23)ccn1` [Example 188, 4-(2-methylpyridin-4-yl)-2-(morpholin-4-yl)-8-(1H-pyrazol-5-yl)-1,7-naphthyridine], the pIC50 under setting [1] was 6.60.
As for `NC(=O)c1ccc(-c2cc(N3CCOCC3)nc3c(-c4ccn[nH]4)nccc23)cc1` [Example 296, 4-[2-(morpholin-4-yl)-8-(1H-pyrazol-5-yl)-1,7-naphthyridin-4-yl]benzamide], the pIC50 under setting [1] was 7.11.
Still for that read-out and setting: as for `CN(c1ccccc1)c1cc(N2CCOCC2)nc2c(-c3ccn[nH]3)nccc12` [Example 410, N-methyl-2-(morpholin-4-yl)-N-phenyl-8-(1H-pyrazol-5-yl)-1,7-naphthyridin-4-amine], the figure is 6.82; as for `CNC(=O)c1ccc(-c2cc(N3CCOCC3)nc3c(-c4ccn[nH]4)nccc23)cn1` [Example 398, N-methyl-5-[2-(morpholin-4-yl)-8-(1H-pyrazol-5-yl)-1,7-naphthyridin-4-yl]pyridine-2-carboxamide], 6.92.
For the compound `c1cc(-c2nccc3c(-c4ccnc5[nH]ccc45)cc(N4CCOCC4)nc23)[nH]n1` [Example 401, 2-(morpholin-4-yl)-8-(1H-pyrazol-5-yl)-4-(1H-pyrrolo[2,3-b]pyridin-4-yl)-1,7-naphthyridine], under setting [1], the pIC50 is 7.06.
For the compound `C[C@@H]1COCCN1c1cc(-c2cccnc2N)c2ccnc(-c3ccn[nH]3)c2n1` [Example 155, 3-{2-[(3R)-3-methylmorpholin-4-yl]-8-(1H-pyrazol-5-yl)-1,7-naphthyridin-4-yl}pyridin-2-amine], under setting [1], the pIC50 was 7.20.
In the case of `CN(c1ccccc1F)c1cc(N2CCOCC2)nc2c(-c3ccn[nH]3)nccc12` [Example 427, N-(2-fluorophenyl)-N-methyl-2-(morpholin-4-yl)-8-(1H-pyrazol-5-yl)-1,7-naphthyridin-4-amine], the pIC50 under setting [1] is 6.95.
Take `c1cc2c(C3CC3)cc(N3CCOCC3)nc2c(-c2cc[nH]n2)n1` [Example 18, 4-cyclopropyl-2-(morpholin-4-yl)-8-(1H-pyrazol-3-yl)-[1,7]naphthyridine]: the pIC50 under setting [1] was 6.64 and the pIC50 under setting [2] was 7.12.
For the compound `CCOc1ccc(-c2cc(N3CCOCC3)nc3c(-c4ccn[nH]4)nccc23)cn1` [Example 382, 4-(6-ethoxypyridin-3-yl)-2-(morpholin-4-yl)-8-(1H-pyrazol-5-yl)-1,7-naphthyridine], the pIC50 under setting [1] was 6.70.
On to `CC(C)(C)NC(=O)c1cncc(-c2cc(N3CCOCC3)nc3c(-c4ccn[nH]4)nccc23)c1` [Example 399, N-tert-butyl-5-[2-(morpholin-4-yl)-8-(1H-pyrazol-5-yl)-1,7-naphthyridin-4-yl]pyridine-3-carboxamide], for which, under setting [1], the pIC50 is 6.21.
Consider `Fc1cncc(-c2cc(N3CCOCC3)nc3c(-c4ccn[nH]4)nccc23)c1` [Example 394, 4-(5-fluoropyridin-3-yl)-2-(morpholin-4-yl)-8-(1H-pyrazol-5-yl)-1,7-naphthyridine], for which the pIC50 under setting [1] is 6.92.
On to `C[C@@H]1COCCN1c1cc(-c2ccc(F)cn2)c2ccnc(-c3ccn[nH]3)c2n1` [Example 163, 4-(5-fluoropyridin-2-yl)-2-[(3R)-3-methylmorpholin-4-yl]-8-(1H-pyrazol-5-yl)-1,7-naphthyridine], for which, under setting [1], the pIC50 is 6.97.
The same measure, in the same setting: then `O=C1CCCCN1c1cc(N2CCOCC2)nc2c(-c3ccn[nH]3)nccc12` [Example 217, 1-[2-(morpholin-4-yl)-8-(1H-pyrazol-5-yl)-1,7-naphthyridin-4-yl]piperidin-2-one], with 6.10.
Turning to `C[C@@H]1COCCN1c1cc(S(C)(=O)=O)c2ccnc(-c3ccn[nH]3)c2n1` [Example 33, 2-[(3R)-3-methylmorpholin-4-yl]-4-(methylsulfonyl)-8-(1H-pyrazol-5-yl)-1,7-naphthyridine], the pIC50 reads like this: under setting [1], 7.70; under setting [2], 7.99.
With `C[C@@H]1COCCN1c1cc(C2CCSCC2)c2ccnc(-c3ccn[nH]3)c2n1` [Example 241, 2-[(3R)-3-methylmorpholin-4-yl]-8-(1H-pyrazol-5-yl)-4-(tetrahydro-2H-thiopyran-4-yl)-1,7-naphthyridine], the pIC50 under setting [1] is 8.39.
Same read-out and setting: then `CC(C)C(C)(O)c1cc(N2CCOC[C@H]2C)nc2c(-c3ccn[nH]3)nccc12` (stereo partly drawn) [Example 281, 3-methyl-2-{2-[(3R)-3-methylmorpholin-4-yl]-8-(1H-pyrazol-5-yl)-1,7-naphthyridin-4-yl}butan-2-ol], with 7.87.

As a reminder, the pIC50 is −log10 of the IC50, conventionally taken in molar units.
